Experiment: Tests of solubilization of a hydroxylated diphenylmethane compound of formula (I) in solubilizers
Assay type: physicochemical
Details: for % max solubility of the hydroxylated diphenylmethane compound of formula (I): optionally heated to 45° C., stirred one hour
Procedure: The compound Phenylethylbenzendiol marketed under the name Symwhite® by Symrise is used as hydroxylated diphenylmethane compound of formula (I).
This compound is weighed and placed in a sealed specimen tube.
Several solubilizers are tested: 10 ml of solubilizer are placed in a beaker and the compound Phenylethylbenzendiol is added mg per mg. The suspension, optionally heated to 45° C., is stirred by magnetic stirring for one hour.
The dissolution or non-dissolution of the hydroxylated diphenylmethane compound of formula (I), and its variation over time are then monitored.
The non-solubility of the hydroxylated diphenylmethane compound of formula (I) in the solubilizer is macroscopically characterized by a precipitate or just a cloudy solution, and microscopically by the presence of crystals.

CC(c1ccccc1)c1ccc(O)cc1O (centres unmarked) [4-(1-phenylethyl)-1,3-benzenediol]
amount solubilized (solubilizer: 2-octyldodecanol): more than 20 % by weight | amount solubilized (solubilizer: Dicaprylyl carbonate): more than 20 % by weight | amount solubilized (solubilizer: dimethyl isosorbide): more than 20 % by weight | amount solubilized (solubilizer: isopropyl N-lauroylsarcosinate (remainder of the solution consisting of the solubilizer)): up to 42 % by weight | amount solubilized (solubilizer: octyl methoxycinnamate): more than 20 % by weight | % max solubility of the hydroxylated diphenylmethane compound of formula (I) (solvent: 2-Octyldodecanol (EUTANOL G from COGNIS)): 22.52% | % max solubility of the hydroxylated diphenylmethane compound of formula (I) (solvent: Apricot oil (APRICOT KERNEL OIL from DESERT WHALE)): 10.00% | % max solubility of the hydroxylated diphenylmethane compound of formula (I) (solvent: Apricot oil (APRICOT KERNEL OIL from DESERT WHALE), listed as hydroxylated diphenylmethane compound (I)): ≤ 10% | % max solubility of the hydroxylated diphenylmethane compound of formula (I) (solvent: Dicaprylyl carbonate (CETIOL CC from COGNIS)): 26.74% | % max solubility of the hydroxylated diphenylmethane compound of formula (I) (solvent: Dimethyl isosorbide (ARLASOLVE DMI from UNIQEMA)): 31.30% | % max solubility of the hydroxylated diphenylmethane compound of formula (I) (solvent: Hydrogenated isoparaffin (PARLEAM from NOF CORPORATION), paraffin oil): not soluble | % max solubility of the hydroxylated diphenylmethane compound of formula (I) (solvent: Hydrogenated isoparaffin (PARLEAM from NOF CORPORATION), paraffin oil, listed as hydroxylated diphenylmethane compound (I)): does not make it possible to solubilize | % max solubility of the hydroxylated diphenylmethane compound of formula (I) (solvent: Isopropyl N-lauroylsarcosinate (ELDEW SL 205 from AJINOMOTO)): 42.00% | % max solubility of the hydroxylated diphenylmethane compound of formula (I) (solvent: Octyl methoxycinnamate (PARSOL MCX from GIVAUDAN (DSM Nutritional Products))): 26.00%
